Patent publication US20120053130A1, “COMPOSITION FOR ENHANCING ABSORPTION OF A DRUG AND METHOD” (Bristol-Myers Squibb Company, priority 2010, published 2012)

How the values were obtained:
[1] = DDAVP permeation across Calu-3 cells on Transwell filters; format: in vitro ADME, human; details: human
Text: (§1) Papp values are labeled on top of the bars.
(§2) Inclusion of LPC further boosted the transport of DDAVP.

Calu-3 cells [2] = test: Alamar Blue acute cytotoxicity assay; format: cell-based, human
Text: FIG. 2 depicts an Alamar Blue Assay—Black bar indicates the % of the cell survival after 2 hrs treatment of LPC at 0-0.25%; gray bar indicates the combination of LPC with 0.5% of C971P.
This assay is based on the ability of live cells to enzymatically reduce Alamar blue dye which indicates the relative percentage of cells that survive the exposure to the various treatments. Calu-3 cells exposed to buffer for 2 hr were used as the positive control with 100% cell survival.

Calu-3 cells [3] = test: TEER measurement (cell integrity and reversibility); format: cell-based, human; details: for TEER after 2 hr (% initial): Phosphatidylcholine (Lecithin) Treatment
Text: The asterisk (delete scatters with) (*) represent (delete marker present) those samples where TEER recovered to the original level within 12 hrs after washout of the treatment.
Transepithelial electrical resistance (TEER) measures the integrity of the epithelial barrier. […] Return of the TEER values to initial levels indicates recovery to baseline barrier properties. TEER measurements were done in confluent highly resistant Calu-3 cells cultured in Transwell filters with handheld STX-2 electrodes connected to EVOM Voltohmmeter. […] After the removal of apical treatment, TEER recovered to the original values.

[4] = Intra-nasal DADLE absorption in rabbits; format: in vivo, rabbit; details: DADLE 1 mg/kg intra-nasal via syringe microsprayer
Text: Intra-nasal delivery of the model pentapepdide DADLE in water, C971P, LPC or C971P/LPC formulation was studied in rabbits. […] The C971P/LPC formulation enhanced DADLE absorption by >50% compared to LPC alone.

Calu-3 cells [5] = test: DDAVP permeation across Calu-3 cells on Transwell filters; format: in vitro ADME, human; details: for DDAVP Permeability: Phosphatidylcholine (Lecithin) Treatment
Text: as §1, §2

Compound: NC(=O)CC[C@@H]1NC(=O)[C@H](Cc2ccccc2)NC(=O)[C@H](Cc2ccc(O)cc2)NC(=O)CCSSC[C@@H](C(=O)N2CCC[C@H]2C(=O)N[C@H](CCCN=C(N)N)C(=O)NCC(N)=O)NC(=O)[C@H](CC(N)=O)NC1=O [DDAVP, 1 deamino-8-D-arginin-vasopressin]
- Papp A→B [1]: 0.04 ± 0.003 ×10⁻⁶ cm/s

Compound: CCCCCCCCCC(=O)[O-].[Na+] [sodium caprate]
- effect of Carbopol 971P on acute cytotoxicity of the enhancer (Calu-3 cells [2]; Alamar Blue cytotoxicity assay in Calu-3 cells): failed to reduce the acute cytotoxicity

Compound: L-α-lysophosphatidylcholine [LPC]
- change in TEER on treatment (Calu-3 cells [3]; 2 hours of treatment): dramatic drop in TEER
- DADLE exposure relative to water control [4]: 2.4 times
- cell survival (Calu-3 cells [2]; 0.05% LPC, 2 hr, without or with 0.5% C971P): About 82%
- cell survival (Calu-3 cells [2]; 0.1% LPC, 2 hr, without or with 0.5% C971P): 41%
- cell survival, result in words (Calu-3 cells [2]; LPC 0-0.25%, 2 hr, without or with 0.5% C971P): dose-dependent reduction in survival

Compound: Phosphatidylcholine [Phosphatidylcholine (Lecithin)]
- TEER after 2 hr (% initial) (Calu-3 cells [3]; 1 mM): No change
- TEER after 2 hr (% initial) (Calu-3 cells [3]; 2 mM): No change
- TEER after 2 hr (% initial) (Calu-3 cells [3]; 5 mM): No change
- DDAVP permeability enhancement and TEER drop, result in words (Calu-3 cells [5]; Calu-3 cells, TEER 2 hr after exposure): failed to show any measurable enhancement or TEER drop
- DDAVP Permeability (Calu-3 cells [5]; 1 mM): 0.045 ± 0.003 ×10⁻⁶ cm/s
- DDAVP Permeability (Calu-3 cells [5]; 2 mM): 0.044 ± 0.003 ×10⁻⁶ cm/s
- DDAVP Permeability (Calu-3 cells [5]; 5 mM): 0.044 ± 0.004 ×10⁻⁶ cm/s
